In article PMC9817970 (Cancers, 2022):

Legend:
Experiment in all cases: Kinase panel profiling
Type in all cases: biochemical
Settings in all cases: 10 μM ATP
ARAF = target: T1, ARAF (Homo sapiens, UniProt P10398)
T1 construct: purchased Reaction Biology Corp
Procedure: (§1) Kinase panel profiling was conducted by Reaction Biology Corp. (San Diego, CA, USA). A single dose (1.0 μM) of 6r was tested against 371 recombinant human kinases in the presence of 10 μM ATP.

CAMK1g = target: T2, CAMK1g (Homo sapiens, UniProt Q96NX5)
T2 construct: purchased Reaction Biology Corp
Procedure: as §1

CDK1/cyclin B = target: T3, CDK1/cyclin B (Homo sapiens, UniProt P06493)
T3 construct: purchased Reaction Biology Corp
Procedure: as §1

CDK1/cyclin E = target: T4, CDK1/cyclin E (Homo sapiens, UniProt P06493)
T4 construct: purchased Reaction Biology Corp
Procedure: as §1

CK1g2 = target: T5, CK1g2 (Homo sapiens, UniProt P78368)
T5 construct: purchased Reaction Biology Corp
Procedure: as §1

DRAK1/STK17A = target: T6, DRAK1/STK17A (Homo sapiens, UniProt Q9UEE5)
T6 construct: purchased Reaction Biology Corp
Procedure: as §1

DYRK1B = target: T7, DYRK1B (Homo sapiens, UniProt Q9Y463)
T7 construct: purchased Reaction Biology Corp
Procedure: as §1

EGFR = target: T8, EGFR (Homo sapiens, UniProt P00533)
T8 construct: purchased Reaction Biology Corp
Procedure: as §1

EPHB2 = target: T9, EPHB2 (Homo sapiens, UniProt P29323)
T9 construct: purchased Reaction Biology Corp
Procedure: as §1

FYN = target: T10, FYN (Homo sapiens, UniProt P06241)
T10 construct: purchased Reaction Biology Corp
Procedure: as §1

GRK5 = target: T11, GRK5 (Homo sapiens, UniProt P34947)
T11 construct: purchased Reaction Biology Corp
Procedure: as §1

HGK/MAP4K4 = target: T12, HGK/MAP4K4 (Homo sapiens, UniProt O95819)
T12 construct: purchased Reaction Biology Corp
Procedure: as §1

IRR/INSRR = target: T13, IRR/INSRR (Homo sapiens, UniProt P14616)
T13 construct: purchased Reaction Biology Corp
Procedure: as §1

LIMK1 = target: T14, LIMK1 (Homo sapiens, UniProt P53667)
T14 construct: purchased Reaction Biology Corp
Procedure: as §1

LYN = target: T15, LYN (Homo sapiens, UniProt P07948)
T15 construct: purchased Reaction Biology Corp
Procedure: as §1

MAK = target: T16, MAK (Homo sapiens, UniProt P20794)
T16 construct: purchased Reaction Biology Corp
Procedure: as §1

MARK4 = target: T17, MARK4 (Homo sapiens, UniProt Q96L34)
T17 construct: purchased Reaction Biology Corp
Procedure: as §1

MEKK2 = target: T18, MEKK2 (Homo sapiens, UniProt Q9Y2U5)
T18 construct: purchased Reaction Biology Corp
Procedure: as §1

MLK1/MAP3K9 = target: T19, MLK1/MAP3K9 (Homo sapiens, UniProt P80192)
T19 construct: purchased Reaction Biology Corp
Procedure: as §1

MLK2/MAP3K10 = target: T20, MLK2/MAP3K10 (Homo sapiens, UniProt Q02779)
T20 construct: purchased Reaction Biology Corp
Procedure: as §1

MSK1/RPS6KA5 = target: T21, MSK1/RPS6KA5 (Homo sapiens, UniProt O75582)
T21 construct: purchased Reaction Biology Corp
Procedure: as §1

MYO3A = target: T22, MYO3A (Homo sapiens, UniProt Q8NEV4)
T22 construct: purchased Reaction Biology Corp
Procedure: as §1

NEK4 = target: T23, NEK4 (Homo sapiens, UniProt P51957)
T23 construct: purchased Reaction Biology Corp
Procedure: as §1

NEK7 = target: T24, NEK7 (Homo sapiens, UniProt Q8TDX7)
T24 construct: purchased Reaction Biology Corp
Procedure: as §1

PAK3 = target: T25, PAK3 (Homo sapiens, UniProt O75914)
T25 construct: purchased Reaction Biology Corp
Procedure: as §1

PAK4 = target: T26, PAK4 (Homo sapiens, UniProt O96013)
T26 construct: purchased Reaction Biology Corp
Procedure: as §1

PASK = target: T27, PASK (Homo sapiens, UniProt Q96RG2)
T27 construct: purchased Reaction Biology Corp
Procedure: as §1

PHKg2 = target: T28, PHKg2 (Homo sapiens, UniProt P15735)
T28 construct: purchased Reaction Biology Corp
Procedure: as §1

PKAcg = target: T29, PKAcg (Homo sapiens, UniProt P22612)
T29 construct: purchased Reaction Biology Corp
Procedure: as §1

PKCa = target: T30, PKCa (Homo sapiens, UniProt P17252)
T30 construct: purchased Reaction Biology Corp
Procedure: as §1

PKCb1 = target: T31, PKCb1 (Homo sapiens, UniProt P05771)
T31 construct: purchased Reaction Biology Corp
Procedure: as §1

PKMYT1 = target: T32, PKMYT1 (Homo sapiens, UniProt Q99640)
T32 construct: purchased Reaction Biology Corp
Procedure: as §1

PKN2/PRK2 = target: T33, PKN2/PRK2 (Homo sapiens, UniProt Q16513)
T33 construct: purchased Reaction Biology Corp
Procedure: as §1

ROS/ROS1 = target: T34, ROS/ROS1 (Homo sapiens, UniProt P08922)
T34 construct: purchased Reaction Biology Corp
Procedure: as §1

SLK/STK2 = target: T35, SLK/STK2 (Homo sapiens, UniProt Q9H2G2)
T35 construct: purchased Reaction Biology Corp
Procedure: as §1

SRPK1 = target: T36, SRPK1 (Homo sapiens, UniProt Q96SB4)
T36 construct: purchased Reaction Biology Corp
Procedure: as §1

TAOK1 = target: T37, TAOK1 (Homo sapiens, UniProt Q7L7X3)
T37 construct: purchased Reaction Biology Corp
Procedure: as §1

TSSK3/STK22C = target: T38, TSSK3/STK22C (Homo sapiens, UniProt Q96PN8)
T38 construct: purchased Reaction Biology Corp
Procedure: as §1

TTBK2 = target: T39, TTBK2 (Homo sapiens, UniProt Q6IQ55)
T39 construct: purchased Reaction Biology Corp
Procedure: as §1

VRK1 = target: T40, VRK1 (Homo sapiens, UniProt Q99986)
T40 construct: purchased Reaction Biology Corp
Procedure: as §1

WEE1 = target: T41, WEE1 (Homo sapiens, UniProt P30291)
T41 construct: purchased Reaction Biology Corp
Procedure: as §1

c-Src = target: T42, c-Src (Homo sapiens, UniProt P12931)
T42 construct: purchased Reaction Biology Corp
Procedure: as §1

T9 sequence (P29323 19-1055): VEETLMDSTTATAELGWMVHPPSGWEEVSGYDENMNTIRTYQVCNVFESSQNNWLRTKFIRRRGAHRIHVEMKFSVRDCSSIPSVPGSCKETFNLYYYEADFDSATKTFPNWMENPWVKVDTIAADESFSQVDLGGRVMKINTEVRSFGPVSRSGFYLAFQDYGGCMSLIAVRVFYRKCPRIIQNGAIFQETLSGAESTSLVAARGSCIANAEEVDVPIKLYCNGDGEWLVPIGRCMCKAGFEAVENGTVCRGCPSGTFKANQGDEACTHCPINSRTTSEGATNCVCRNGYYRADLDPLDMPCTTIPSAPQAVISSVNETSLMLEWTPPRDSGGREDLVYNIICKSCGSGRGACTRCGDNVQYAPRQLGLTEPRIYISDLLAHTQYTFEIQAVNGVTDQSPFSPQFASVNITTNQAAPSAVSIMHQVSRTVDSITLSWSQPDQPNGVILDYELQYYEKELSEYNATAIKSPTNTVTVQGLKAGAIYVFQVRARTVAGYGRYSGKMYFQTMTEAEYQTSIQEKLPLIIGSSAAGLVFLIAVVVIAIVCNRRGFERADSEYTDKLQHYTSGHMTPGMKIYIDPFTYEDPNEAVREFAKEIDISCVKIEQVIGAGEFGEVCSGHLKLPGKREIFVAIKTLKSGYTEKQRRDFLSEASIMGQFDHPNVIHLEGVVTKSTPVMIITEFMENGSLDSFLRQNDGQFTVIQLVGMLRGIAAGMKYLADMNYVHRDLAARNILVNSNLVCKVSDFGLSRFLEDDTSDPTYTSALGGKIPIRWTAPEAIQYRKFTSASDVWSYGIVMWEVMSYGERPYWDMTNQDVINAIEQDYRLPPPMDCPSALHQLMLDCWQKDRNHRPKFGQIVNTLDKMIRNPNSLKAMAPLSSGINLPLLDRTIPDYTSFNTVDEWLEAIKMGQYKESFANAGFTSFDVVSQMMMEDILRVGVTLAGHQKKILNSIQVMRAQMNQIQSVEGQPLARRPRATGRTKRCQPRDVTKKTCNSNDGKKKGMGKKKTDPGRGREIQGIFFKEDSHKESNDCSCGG
T12 sequence (O95819 whole entry): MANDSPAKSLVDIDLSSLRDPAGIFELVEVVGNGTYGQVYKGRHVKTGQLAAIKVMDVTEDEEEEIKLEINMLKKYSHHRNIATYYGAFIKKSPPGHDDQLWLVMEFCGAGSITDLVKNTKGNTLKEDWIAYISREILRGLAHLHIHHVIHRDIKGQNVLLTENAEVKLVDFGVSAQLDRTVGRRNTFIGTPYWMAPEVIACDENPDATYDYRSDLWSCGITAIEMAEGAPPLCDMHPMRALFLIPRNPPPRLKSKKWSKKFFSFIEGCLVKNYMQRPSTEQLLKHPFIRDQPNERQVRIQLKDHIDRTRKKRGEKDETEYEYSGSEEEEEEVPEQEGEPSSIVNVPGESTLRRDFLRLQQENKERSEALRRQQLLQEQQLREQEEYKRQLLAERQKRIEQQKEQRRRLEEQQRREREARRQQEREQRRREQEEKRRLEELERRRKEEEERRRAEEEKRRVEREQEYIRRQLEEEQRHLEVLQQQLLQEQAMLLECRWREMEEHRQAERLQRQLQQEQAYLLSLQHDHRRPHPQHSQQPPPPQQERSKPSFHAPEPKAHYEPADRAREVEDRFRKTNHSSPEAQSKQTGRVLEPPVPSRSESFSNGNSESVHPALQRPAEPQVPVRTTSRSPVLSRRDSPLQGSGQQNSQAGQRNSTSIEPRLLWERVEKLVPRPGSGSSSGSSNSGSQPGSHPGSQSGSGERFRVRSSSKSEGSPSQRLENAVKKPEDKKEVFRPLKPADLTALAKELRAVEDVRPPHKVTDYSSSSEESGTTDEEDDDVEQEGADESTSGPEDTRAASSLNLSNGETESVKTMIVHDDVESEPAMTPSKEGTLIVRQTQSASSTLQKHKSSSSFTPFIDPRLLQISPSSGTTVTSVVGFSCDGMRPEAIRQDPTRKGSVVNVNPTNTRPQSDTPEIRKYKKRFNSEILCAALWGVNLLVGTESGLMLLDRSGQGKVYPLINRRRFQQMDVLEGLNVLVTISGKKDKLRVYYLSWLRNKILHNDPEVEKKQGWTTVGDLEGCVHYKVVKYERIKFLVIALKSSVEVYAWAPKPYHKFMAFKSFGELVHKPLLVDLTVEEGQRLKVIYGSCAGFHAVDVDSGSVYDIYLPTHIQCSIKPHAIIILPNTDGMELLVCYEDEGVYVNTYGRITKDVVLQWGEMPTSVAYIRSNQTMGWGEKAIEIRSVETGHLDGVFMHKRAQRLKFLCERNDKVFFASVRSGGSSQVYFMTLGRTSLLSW
T42 sequence (P12931 whole entry): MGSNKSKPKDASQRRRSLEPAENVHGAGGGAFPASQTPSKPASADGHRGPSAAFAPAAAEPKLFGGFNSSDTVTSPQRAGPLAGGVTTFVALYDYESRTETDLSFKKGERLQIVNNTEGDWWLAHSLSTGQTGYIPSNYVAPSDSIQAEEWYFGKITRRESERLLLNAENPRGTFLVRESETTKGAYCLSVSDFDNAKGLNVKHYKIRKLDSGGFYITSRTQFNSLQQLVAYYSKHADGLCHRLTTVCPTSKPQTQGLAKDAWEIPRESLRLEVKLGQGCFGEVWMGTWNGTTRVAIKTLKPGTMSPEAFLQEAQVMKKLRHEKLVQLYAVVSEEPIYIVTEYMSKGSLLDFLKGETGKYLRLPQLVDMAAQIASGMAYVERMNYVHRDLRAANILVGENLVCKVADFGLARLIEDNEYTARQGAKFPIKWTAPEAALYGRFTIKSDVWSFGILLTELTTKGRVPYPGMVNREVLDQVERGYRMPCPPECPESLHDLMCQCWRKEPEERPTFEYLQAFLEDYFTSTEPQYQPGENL
T40 sequence (Q99986 whole entry): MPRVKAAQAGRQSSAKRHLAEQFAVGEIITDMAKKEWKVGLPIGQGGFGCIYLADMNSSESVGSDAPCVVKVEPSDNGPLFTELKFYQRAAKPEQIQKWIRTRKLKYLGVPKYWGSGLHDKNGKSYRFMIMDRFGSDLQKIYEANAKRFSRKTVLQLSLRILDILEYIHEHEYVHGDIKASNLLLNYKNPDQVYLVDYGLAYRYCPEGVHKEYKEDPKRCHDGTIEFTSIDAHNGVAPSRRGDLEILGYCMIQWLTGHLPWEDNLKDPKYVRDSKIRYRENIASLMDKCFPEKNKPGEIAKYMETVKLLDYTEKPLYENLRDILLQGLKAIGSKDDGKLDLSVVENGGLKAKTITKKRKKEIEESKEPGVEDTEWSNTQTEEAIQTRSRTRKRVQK
T39 sequence (Q6IQ55 whole entry): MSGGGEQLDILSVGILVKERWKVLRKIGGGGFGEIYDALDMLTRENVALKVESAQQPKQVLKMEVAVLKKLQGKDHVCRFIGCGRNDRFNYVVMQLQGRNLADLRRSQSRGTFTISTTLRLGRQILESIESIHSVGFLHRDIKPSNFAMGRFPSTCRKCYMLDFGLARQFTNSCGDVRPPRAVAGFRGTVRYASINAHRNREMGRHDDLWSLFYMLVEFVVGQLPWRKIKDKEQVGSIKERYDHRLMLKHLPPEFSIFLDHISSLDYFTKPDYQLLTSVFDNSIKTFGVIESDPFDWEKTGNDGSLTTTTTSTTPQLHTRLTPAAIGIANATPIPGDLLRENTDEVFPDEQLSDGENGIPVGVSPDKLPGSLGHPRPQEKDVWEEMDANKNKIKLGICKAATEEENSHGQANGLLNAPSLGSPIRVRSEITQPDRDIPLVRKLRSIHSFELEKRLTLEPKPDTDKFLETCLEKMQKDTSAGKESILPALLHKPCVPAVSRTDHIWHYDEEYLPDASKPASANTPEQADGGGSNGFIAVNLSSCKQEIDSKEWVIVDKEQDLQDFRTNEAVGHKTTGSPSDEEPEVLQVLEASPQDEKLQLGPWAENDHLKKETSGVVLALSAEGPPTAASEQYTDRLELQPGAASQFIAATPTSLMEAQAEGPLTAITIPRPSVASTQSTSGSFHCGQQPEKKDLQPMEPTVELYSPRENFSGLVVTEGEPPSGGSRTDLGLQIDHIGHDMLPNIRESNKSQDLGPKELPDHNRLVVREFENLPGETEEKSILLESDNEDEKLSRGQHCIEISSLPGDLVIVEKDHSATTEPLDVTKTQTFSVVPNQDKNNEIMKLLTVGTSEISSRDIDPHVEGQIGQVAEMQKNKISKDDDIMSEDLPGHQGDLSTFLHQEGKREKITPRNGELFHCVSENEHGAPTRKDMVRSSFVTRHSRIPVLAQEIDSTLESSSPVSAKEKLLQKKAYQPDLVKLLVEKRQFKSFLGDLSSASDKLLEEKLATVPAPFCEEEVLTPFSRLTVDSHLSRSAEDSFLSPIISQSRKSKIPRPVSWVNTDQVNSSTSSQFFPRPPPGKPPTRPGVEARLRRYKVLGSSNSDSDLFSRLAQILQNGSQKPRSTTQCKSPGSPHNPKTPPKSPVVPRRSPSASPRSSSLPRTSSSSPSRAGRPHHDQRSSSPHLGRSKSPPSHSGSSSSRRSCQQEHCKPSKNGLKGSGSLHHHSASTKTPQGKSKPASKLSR
T1 sequence (P10398 whole entry): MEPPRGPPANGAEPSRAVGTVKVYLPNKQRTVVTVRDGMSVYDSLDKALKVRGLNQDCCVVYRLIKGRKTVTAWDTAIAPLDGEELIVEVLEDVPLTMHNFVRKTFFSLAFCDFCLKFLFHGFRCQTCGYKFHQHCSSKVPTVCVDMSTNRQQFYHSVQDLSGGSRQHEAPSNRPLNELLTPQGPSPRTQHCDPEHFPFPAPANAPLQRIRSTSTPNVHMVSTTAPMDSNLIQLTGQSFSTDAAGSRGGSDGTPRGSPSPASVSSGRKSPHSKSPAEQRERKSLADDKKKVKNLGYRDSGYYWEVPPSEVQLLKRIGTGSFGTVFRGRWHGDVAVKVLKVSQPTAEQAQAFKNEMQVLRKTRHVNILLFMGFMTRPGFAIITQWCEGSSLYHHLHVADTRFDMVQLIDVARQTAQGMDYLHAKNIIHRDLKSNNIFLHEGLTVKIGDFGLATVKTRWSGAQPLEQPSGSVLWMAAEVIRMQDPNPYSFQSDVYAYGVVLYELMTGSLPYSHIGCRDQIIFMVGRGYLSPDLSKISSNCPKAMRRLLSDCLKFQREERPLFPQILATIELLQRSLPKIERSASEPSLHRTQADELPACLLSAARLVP

Cc1ccc(NC(=O)c2ccc(CN3CCN(C)CC3)c(C(F)(F)F)c2)cc1-c1cnc2sc(N)nc2c1 [6r]
inhibition at 1 µM (ARAF): 98.3% | inhibition at 1 µM (CAMK1g): 20.8% | inhibition at 1 µM (CDK1/cyclin B): 0% | inhibition at 1 µM (CDK1/cyclin E): 0% | inhibition at 1 µM (CK1g2): 38.9% | inhibition at 1 µM (DRAK1/STK17A): 0% | inhibition at 1 µM (DYRK1B): 26.2% | inhibition at 1 µM (EGFR): 21.4% | inhibition at 1 µM (EPHB2): 38.9% | inhibition at 1 µM (FYN): 89% | inhibition at 1 µM (GRK5): 5.8% | inhibition at 1 µM (HGK/MAP4K4): 0% | inhibition at 1 µM (IRR/INSRR): 0% | inhibition at 1 µM (LIMK1): 87.2% | inhibition at 1 µM (LYN): 97.5% | inhibition at 1 µM (MAK): 15% | inhibition at 1 µM (MARK4): 2% | inhibition at 1 µM (MEKK2): 11.1% | inhibition at 1 µM (MLK1/MAP3K9): 0% | inhibition at 1 µM (MLK2/MAP3K10): 13.4% | inhibition at 1 µM (MSK1/RPS6KA5): 0% | inhibition at 1 µM (MYO3A): 15% | inhibition at 1 µM (NEK4): 25.6% | inhibition at 1 µM (NEK7): 5.4% | inhibition at 1 µM (PAK3): 8.3% | inhibition at 1 µM (PAK4): 8.6% | inhibition at 1 µM (PASK): 4.6% | inhibition at 1 µM (PHKg2): 5% | inhibition at 1 µM (PKAcg): 29.2% | inhibition at 1 µM (PKCa): 4.2% | inhibition at 1 µM (PKCb1): 10.5% | inhibition at 1 µM (PKMYT1): 10% | inhibition at 1 µM (PKN2/PRK2): 0% | inhibition at 1 µM (ROS/ROS1): 6.6% | inhibition at 1 µM (SLK/STK2): 37.8% | inhibition at 1 µM (SRPK1): 46.3% | inhibition at 1 µM (TAOK1): 6.1% | inhibition at 1 µM (TSSK3/STK22C): 0% | inhibition at 1 µM (TTBK2): 23.2% | inhibition at 1 µM (VRK1): 1.6% | inhibition at 1 µM (WEE1): 0% | inhibition at 1 µM (c-Src): 68.7%
